# Test results published in PubChem BioAssay AID1845202 (Molecular Pharmacology Branch, DTP, NCI, 2023).
# Several values for one entry are separate records, joined by “and”; a condition that tells them apart may be missing. Equal values may be shown once.
# System: DMS 114 tumor spheroids, viability % test/control
# Assay: Anticancer human tumor DMS 114 cell line growth inhibition;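 further: spheroids exposed to compounds for 7 days before read-out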;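 on viability, T/C: luminescence used as a proxy for viable cells; 100% = DMSO vehicle control viability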
# Conditions: spheroids with HUVEC and MSC; for viability, T/C: stronger effect = lower value
# From the text: Multicellular complex tumor spheroid response to DNA repair inhibitors in combination with DNA-damaging drugs
# This study explores the anticancer activities of DNA-damaging drugs and inhibitors of DNA damage repair, both as single agents and in combinations. Complex tumor spheroids comprised of malignant cells, endothelial cells and mesenchymal stem cells served as an in vitro model for human solid tumors. This model system incorporates physiologically relevant features and patient-derived or established malignant cell lines with clinically relevant genetic alterations from many tumor types. Twenty-six patient-derived or established malignant cell lines were evaluated representing sarcoma, melanoma, small cell lung cancer (SCLC), non-small cell lung cancer (NSCLC), as well as bladder, ovarian and pancreatic cancers. The concentration ranges selected for each drug and investigational agent were based upon clinically achievable concentrations if the clinical Cmax of the agent was known.
# Compounds. The drugs and compounds olaparib (NSC753686), talazoparib (NSC767125), berzosertib (NSC777718), elimusertib (NSC800525), nedisertib (NSC802822), VX-984 (NSC792969), AZD-1390 (NSC803789), temozolomide (NSC362856), topotecan (NSC609699), trabectedin (NSC813783), staurosporine (NSC755774), and gemcitabine (NSC613327) were obtained from the National Cancer Institute (NCI) Developmental Therapeutics Program Chemical Repository. The FDA-approved anticancer drug set is available from the Developmental Therapeutics Program at https://dtp.cancer.gov/organization/dscb/obtaining/available_plates.htm. […] The stock solutions were prepared in dimethyl sulfoxide (DMSO, Sigma-Aldrich, St. Louis, MO, cat. D2650) at 400-fold the tested concentration and stored at -70 degrees C. Prior to their use, the stock solutions were diluted in fresh medium and the final DMSO concentration in the assay was 0.25% (v/v). All drugs and investigational agents were tested over a range starting from a high concentration at or near the clinical Cmax and decreasing in half-log increments. If the clinical Cmax for an agent had not been determined, the highest concentration tested was 10 microM.
# Cell Lines. The patient-derived cancer cell (PDC) lines: 156681-154-R-J1-PDC, 283228-195-R-J1-PDC, 287954-098-R-J1-PDC, 292921-168-R-J2-PDC, 349418-098-R-PDC, 425362-245-T-J1-PDC, 556581-035-R-J1-PDC, and BL0293-F563-PDC were received from the NCI Patient-Derived Models Repository (PDMR, https://pdmr.cancer.gov). The established cell lines HS-SY-2 (RRID:CVCL_8719), MPNST, and SYO-1 (RRID:CVCL_7146) were obtained from the Sloan Kettering Institute. The alveolar soft parts sarcoma cell line ASPS-1 (RRID:CVCL_S738) was established at the NCI and grown from internal seed stocks. The following established cell lines were purchased from the American Type Culture Collection (ATCC, Manassas, VA): G-401 (ATCC, cat. CRL-1441, RRID:CVCL_0270), SW982 (ATCC, cat. HTB-93, RRID:CVCL_1734), VA-ES-BJ (ATCC, cat. CRL-2138, RRID:CVCL_1785), NCI-H719 (ATCC, cat. CRL-5837, RRID:CVCL_1582), NCI-H196 (ATCC, cat. CRL-5823, RRID:CVCL_1509), NCI-H841 (ATCC, cat. CRL-5845, RRID:CVCL_1595), NCI-H1618 (ATCC, cat. CRL-5879, RRID:CVCL_1480), NCI-H1876 (ATCC, cat. CRL-5902, RRID:CVCL_1503), DMS 114 (ATCC, cat. CRL-2066; RRID:CVCL_1174), NCI-H211 (ATCC, cat. CRL-5824; RRID:CVCL_1529), and SW 1271 (ATCC, cat. CRL-2177, RRID:CVCL_1716). The small cell lung cancer cell line COR-L88 was purchased from Sigma-Aldrich (cat. 92031917-1VL, RRID:CVCL_1141). The non-small cell lung cancer cell lines NCI-H226 (RRID:CVCL_1544) and NCI-H322M (RRID:CVCL_1557) were established at the NCI and grown from internal seed stocks. Pooled donor human umbilical vein endothelial cells (HUVEC, Lonza, cat. CC-2519) and human mesenchymal stem cells (hMSC, Lonza, cat. PT-2501) were purchased from Lonza (Walkersville, MD).
# Cell Culture. All cells were maintained in an incubator at 37 degrees C and 5% CO2 with 95% humidity. […]
# [1] = compound alone, run of 10/17/2019
# [2] = compound alone, run of 10/25/2019
Compound,"viability, T/C (compound 0.0316 µM)","viability, T/C (compound 0.1 µM)","viability, T/C (compound 0.316 µM)","viability, T/C (compound 1 µM)","viability, T/C (compound 3.16 µM)","viability, T/C (compound 10 µM)",IC50 (curve of compound),"viability, T/C (compound 0.03 µM)","viability, T/C (compound 0.0949 µM)","viability, T/C (compound 0.3 µM)","viability, T/C (compound 0.949 µM)","viability, T/C (compound 3 µM)",further results
CC(C)n1c(=O)n(C)c2cnc3cc(F)c(-c4ccc(OCCCN5CCCCC5)nc4)cc3c21,106% and 99.8% and 105%,104% and 103% and 107%,101% and 97.2% and 106%,97.8% and 102% and 93.4%,70.1% and 88% and 73.8%,22.5% and 34.4% and 22.6%,5.15 µM and 7.21 µM and 5.37 µM,,,,,,
CC1COCCN1c1cc(-c2ccnn2C)c2ccnc(-c3ccn[nH]3)c2n1 (configuration not stated),53.3% and 52% and 78.1%,33.3% and 43.1% and 47.9%,19% and 25.5% and 22.5%,12% and 12.8% and 12.6%,9.85% and 10.8% and 9.54%,10.2% and 11.9% and 8.81%,0.0382 µM and 0.0407 µM and 0.0922 µM,,,,,,
CC[C@@]1(O)C(=O)OCc2c1cc1n(c2=O)Cc2cc3c(CN(C)C)c(O)ccc3nc2-1,,,,,,,,33.1% [middle of 10 runs],16.2% [middle of 10 runs],10.4% [middle of 10 runs],,,"viability, T/C (compound 0.003 µM): 107% [middle of 10 runs]; IC50 [1]: 22.3 nM [middle of 5 runs]; IC50 [2]: 20.2 nM [middle of 5 runs]"
CNCc1ccc(-c2cc(-c3nc(-c4ccc(S(=O)(=O)C(C)C)cc4)cnc3N)on2)cc1,,,,,,,0.216 µM and 0.176 µM and 0.184 µM,96.8% and 102% and 94%,88.2% and 77.7% and 80.8%,34.7% and 25.9% and 27.3%,3.27% and 5.9% and 2.77%,0.32% and 0.23% and 0.26%,"viability, T/C (compound 0.00949 µM): 93% and 107% and 91.3%"
COc1cc(C)[nH]c(=O)c1CN1CCc2c(Cl)cc(C(OC)C3COC3)c(Cl)c2C1=O (configuration not stated),99.2% and 104% and 106%,92.3% and 96.3% and 96.5%,84.5% and 87.3% and 86.1%,78% and 79.3% and 78.8%,72.8% and 77.8% and 73.3%,72.2% and 72.6% and 72.4%,> 10 µM,,,,,,
COc1cc2c(cc1O)CCNC21CSC2c3c(OC(C)=O)c(C)c4c(c3C(COC1=O)N1C(O)C3Cc5cc(C)c(OC)c(O)c5C(C21)N3C)OCO4 (configuration not stated),,,,,,,,,,,,,"viability, T/C (compound 30 pM): 102% [middle of 10 runs]; viability, T/C (compound 94.9 pM): 102% [middle of 10 runs]; viability, T/C (compound 0.0003 µM): 41.4% [middle of 10 runs]; viability, T/C (compound 0.000949 µM): 4.04% [middle of 10 runs]; viability, T/C (compound 0.003 µM): 0.21% [middle of 7 runs]; IC50 [2]: 0.253 nM [middle of 10 runs]"
COc1ccc([C@@H](O)c2cc(-c3ncnc4cc(N5CCOCC5)ccc34)c(F)cc2Cl)nn1,98.5% and 111% and 96.3%,100% and 104% and 105%,98% and 103% and 108%,98.8% and 121% and 100%,81.9% and 95.8% and 92.8%,40.5% and 46.1% and 35.6%,7.8 µM and 9.15 µM and 7.49 µM,,,,,,
Cc1cc(C)c(CNC(=O)c2cc(-c3ccc(CN4CCOCC4)cc3)cc3c2cnn3C2CCCC2)c(=O)[nH]1,99.2% and 94.7% and 96.4%,104% and 96.8% and 102%,103% and 113% and 108%,116% and 115% (2×),106% and 110% and 103%,62.3% and 78% and 72.8%,> 10 µM,,,,,,
Cc1sc2c(c1C)C(c1ccc(Cl)cc1)=NC(CC(=O)Nc1ccc(O)cc1)c1nnc(C)n1-2 (configuration not stated),,,,,,,0.164 µM and 0.116 µM,111% and 108% and 107%,69.5% and 72.7% and 55.8%,27.6% and 24.4% and 18.9%,11.3% and 9.42% and 7.59%,7.11% and 4.64% and 4.8%,"viability, T/C (compound 0.00949 µM): 99% and 105% and 95%"
Cn1ncnc1[C@H]1c2n[nH]c(=O)c3cc(F)cc(c23)N[C@@H]1c1ccc(F)cc1,,,,,,,0.611 µM and 0.901 µM and 0.514 µM,94.9% and 113% and 95.8%,91.3% and 103% and 87.2%,72.8% and 101% and 65.3%,34.5% and 47.5% and 32.3%,9.35% and 15.3% and 10.1%,"viability, T/C (compound 0.00949 µM): 117% and 110% and 92%"
Cn1nnc2c(C(N)=O)ncn2c1=O,,,,101% [middle of 10 runs],101% [middle of 9 runs],106% [middle of 10 runs],,,,,,,"viability, T/C (compound 31.6 µM): 106% [middle of 10 runs]; IC50 [1]: > 100 µM"
O=C(c1cc(Cc2n[nH]c(=O)c3ccccc23)ccc1F)N1CCN(C(=O)C2CC2)CC1,,,,,,,27.7 µM and 11.1 µM and 12 µM,,105% and 104% and 97.3%,104% (2×) and 102%,107% and 98.7% and 106%,109% and 107% and 102%,"viability, T/C (compound 9.49 µM): 70.7% and 53.2% and 55.8%; viability, T/C (compound 30 µM): 48.5% and 29.6% and 26.8%"
[2H]c1nc(C)nc([2H])c1-c1cc(NC[C@@H](C)c2cccc3c(C(=O)NC)ccnc23)ncn1,103% and 104% (2×),109% and 103% and 111%,105% and 99.8% and 113%,105% and 103% and 96.1%,101% and 98% and 103%,96.1% and 93.5% and 87.6%,> 10 µM,,,,,,
